Test results taken from patent publication US20250295639A1, “METHODS FOR TREATING HEART DISEASES” (Cytokinetics, Incorporated, priority 2024, published 2025).

Legend:
[1] = tested on: patients with symptomatic oHCM; assay: SEQUOIA-HCM: analysis by baseline Valsalva LVOT-G severity (severe <100 mmHg vs very severe ≥100 mmHg); format: in vivo, human; details: for Change in KCCQ CSS, Mean (SD) Change from Baseline / LVOT-G - Rest, Mean (SD) Change from Baseline / LVOT-G - Valsalva, Mean (SD) Change from Baseline / Peak VO2, Mean (SD) Change from Baseline / Change in KCCQ CSS, Adjusted diff / LVOT-G - Rest, Adjusted diff / LVOT-G - Valsalva, Adjusted diff / NT-proBNP, Adjusted diff / Peak VO2, Adjusted diff / Proportional LVOT-G - Rest, Adjusted diff / Proportional LVOT-G - Valsalva, Adjusted diff / hs-cTpI, Adjusted diff: Baseline to Week 24; for Change in KCCQ CSS, Adjusted diff / LVOT-G - Rest, Adjusted diff / LVOT-G - Valsalva, Adjusted diff / NT-proBNP, Adjusted diff / Peak VO2, Adjusted diff / Proportional LVOT-G - Rest, Adjusted diff / Proportional LVOT-G - Valsalva, Adjusted diff / hs-cTpI, Adjusted diff / NYHA FC improvement, Rate difference / Proportion of patients with rest LVOT-G <30 mmHg & Valsalva LVOT-G <50 mmHg, Adjusted diff: vs placebo; for NYHA FC improvement, % of patients / Proportion of patients with rest LVOT-G <30 mmHg & Valsalva LVOT-G <50 mmHg / NYHA FC improvement, Rate difference / Proportion of patients with rest LVOT-G <30 mmHg & Valsalva LVOT-G <50 mmHg, Adjusted diff: Week 24; for proportional reduction from baseline in Valsalva (provoked) LVOT-G / proportional reduction from baseline in resting LVOT-G: week 24
Source text: Patients with Hypertrophic Obstructive Cardiomyopathy and Very Severe Left Ventricular Outflow Tract Obstruction. Patients enrolled in SEQUOIA-HCM (the study of Example 8), the pivotal phase 3 controlled trial of aficamten in adults with symptomatic oHCM, were grouped according to baseline Valsalva LVOT-G (severe obstruction [<100 mmHg] versus very severe obstruction [≥100 mmHg]). The prespecified primary endpoint was the proportional change from baseline to Week 24 in rest and Valsalva LVOT-G in severe versus very severe obstruction groups. Secondary endpoints included change in symptoms, cardiac biomarkers, and exercise capacity by group (Table 14). Of the 282 patients randomized, 209 patients had severe obstruction, and 73 had very severe obstruction. Compared to baseline, there was a profound reduction in resting and provoked obstruction in both groups. By week 24, the proportional reductions (95% CI) from baseline in the severely obstructed cohort were 69% (74 to 63) and 64% (69 to 56), and 73% (81 to 63) and 71% (79 to 61) in the very severe obstruction cohort, but there was no between-group difference (p>0.05). […] The post-titration doses by group were similar, with 81% and 88% in each cohort receiving the 15 mg and 20 mg dose strengths (p=0.21). There were no instances of per protocol down-titration in the very severe obstruction group, and treatment emergent adverse events (TEAE's) were balanced between groups (any TEAE 77 [71%] in severe versus 28 [85%] in very severe obstruction; p=0.60).

[2] = tested on: patients with symptomatic oHCM; set-up: species or system human; details: in vivo
Experimental: Patients enrolled in this trial were required to have an LVEF≥60% prior to randomization, as confirmed by the central echocardiography laboratory. […] Dose escalation was performed on an individualized basis only if the following criteria were met: both post-Valsalva LVOT-G≥30 mmHg and biplane LVEF≥55%. Importantly, in contrast to CY 6021, the lower limit of LVEF for dose escalations was increased from 50% to 55% to provide a safety margin from the threshold of LVEF (<50%) that would trigger dose reduction. If the LVEF was <50% at any time, the dose of aficamten was down-titrated, and if the LVEF is <40% at any time, aficamten was temporarily interrupted.
To evaluate the safety and tolerability profile of aficamten in patients with symptomatic oHCM, the following were recorded: (1) incidence of reported major adverse cardiac events (cardiovascular [CV] death, cardiac arrest, non-fatal stroke, non-fatal myocardial infarction, CV hospitalization); (2) incidence of new onset persistent atrial fibrillation; (3) incidence of appropriate implantable cardiac defibrillator (ICD) discharges and aborted sudden cardiac death; (4) incidence of left ventricular ejection fraction (LVEF)<50%; and (5) incidence of treatment emergent adverse events.

[3] = tested on: patients with nonobstructive hypertrophic cardiomyopathy (nHCM); assay: FOREST-HCM open-label extension, 36-week analysis in nHCM; format: in vivo, human
Source text: An open-label extension clinical trial of aficamten in patients with symptomatic oHCM was initiated and was described as Example 3b in WO 2024/031016 and in U.S. Patent Publication US-2024-0115554-A1, the disclosures of which are incorporated by reference herein. The treatment duration is anticipated to be multiple years. The primary objective of the trial is to determine the safety and tolerability of aficamten over a 5-year period. Safety and efficacy of aficamten in patients with nonobstructive hypertrophic cardiomyopathy (nHCM). Thirty-four patients were enrolled (mean age±SD 57.2±15.3 years, 62% women). At baseline, patients were symptomatic (41% NYHA class III) with median (IQR) NT-proBNP and hs-cTnI of […] (735, 1735) and 24.9 ng/L (9.7, 46.4), respectively. By the end of the titration period (week 6), 3 (8.8%), 3 (8.8%), 6 (17.6%) and 22 (64.7%) patients received doses of 5, 10, 15, and 20 mg daily, respectively. At baseline, LVEF (mean±SD) was 70%±6.1; over 36-weeks, there was a modest reduction of 4.3%±5.2 (p<0.0001). NYHA class improved by ≥1 class in 27 (79.4%) patients, including 20 (58.8%) were asymptomatic (NYHA class I) by week 36. The mean KCCQ-CSS improved by 13.8±12.52 points relative to baseline, with 24/31 (77.4%) patients reporting improvements of ≥5 points. […] Most patients achieved the highest available dose while maintaining normal LVEF.

[4] = Baseline Valsalva LVOT-G <100 mmHg
[5] = Baseline Valsalva LVOT-G <100 mmHg, N = 109
[6] = Baseline Valsalva LVOT-G ≥100mmHg
[7] = Baseline Valsalva LVOT-G ≥100mmHg, N=33
[8] = severe obstruction (baseline Valsalva LVOT-G <100 mmHg)
[9] = very severe obstruction (≥100 mmHg)

CCc1nc(-c2ccc3c(c2)CC[C@H]3NC(=O)c2cnn(C)c2)no1 [aficamten, (R)—N-(5-(5-ethyl-1,2,4-oxadiazol-3-yl)-2,3-dihydro-1H-inden-1-yl)-1-methyl-1H-pyrazole-4-carboxamide] was tested, and the “Change in KCCQ CSS, Mean (SD) Change from Baseline” value [1, 4] was 12, the “LVOT-G - Rest, Mean (SD) Change from Baseline” value [1, 4] was −28 ± 25 mmHg and the “LVOT-G - Valsalva, Mean (SD) Change from Baseline” value [1, 4] was −38 ± 31 mmHg. The “Peak VO2, Mean (SD) Change from Baseline” value [1, 4] was 1.8 ± 3.2 mL/min/kg, the “Change in KCCQ CSS, Adjusted diff” value [1, 4] was “+8” and the “LVOT-G - Rest, Adjusted diff” value [1, 4] was −35 mmHg. For the same compound, the “LVOT-G - Valsalva, Adjusted diff” value [1, 4] was −43 mmHg, the “NT-proBNP, Adjusted diff” value [1, 4] was −79% and the “Peak VO2, Adjusted diff” value [1, 4] was “+1.6 mL/kg/min”. For the same compound, the “Proportional LVOT-G - Rest, Adjusted diff” value [1, 4] was −69%, the “Proportional LVOT-G - Valsalva, Adjusted diff” value [1, 4] was −64% and the “hs-cTpI, Adjusted diff” value [1, 4] was −45%. The “NYHA FC improvement, % of patients” value [1, 5] was “(62%)”, the “Proportion of patients with rest LVOT-G <30 mmHg & Valsalva LVOT-G <50 mmHg” value [1, 5] was “(73%)” and the “NYHA FC improvement, Rate difference” value [1, 4] was “+38.2%”. For the same compound, the “Proportion of patients with rest LVOT-G <30 mmHg & Valsalva LVOT-G <50 mmHg, Adjusted diff” value [1, 4] was “+63.7%”, the “Change in KCCQ CSS, Mean (SD) Change from Baseline” value [1, 6] was 9 and the “LVOT-G - Rest, Mean (SD) Change from Baseline” value [1, 6] was −60 ± 29 mmHg. The “LVOT-G - Valsalva, Mean (SD) Change from Baseline” value [1, 6] was −82 ± 38 mmHg, the “Peak VO2, Mean (SD) Change from Baseline” value [1, 6] was 1.6 ± 2.8 mL/min/kg and the “Change in KCCQ CSS, Adjusted diff” value [1, 6] was “+4”. For the same compound, the “LVOT-G - Rest, Adjusted diff” value [1, 6] was −52 mmHg, the “LVOT-G - Valsalva, Adjusted diff” value [1, 6] was −68 mmHg and the “NT-proBNP, Adjusted diff” value [1, 6] was −85%. The “Peak VO2, Adjusted diff” value [1, 6] was “+1.8 mL/kg/min”, the “Proportional LVOT-G - Rest, Adjusted diff” value [1, 6] was −73% and the “Proportional LVOT-G - Valsalva, Adjusted diff” value [1, 6] was −71%. The “hs-cTpI, Adjusted diff” value [1, 6] was −34%, the “NYHA FC improvement, % of patients” value [1, 7] was “(49%)” and the “Proportion of patients with rest LVOT-G <30 mmHg & Valsalva LVOT-G <50 mmHg” value [1, 7] was “(52%)”. The “NYHA FC improvement, Rate difference” value [1, 6] was “+22.4%”, the “Proportion of patients with rest LVOT-G <30 mmHg & Valsalva LVOT-G <50 mmHg, Adjusted diff” value [1, 6] was “+51.2%” and the “proportional reduction from baseline in Valsalva (provoked) LVOT-G” value [1, 8] was 64%. For the same compound, the “proportional reduction from baseline in resting LVOT-G” value [1, 8] was 69%, the “proportional reduction from baseline in Valsalva (provoked) LVOT-G” value [1, 9] was 71% and the “proportional reduction from baseline in resting LVOT-G” value [1, 9] was 73%. The “instances of per protocol down-titration” value [2] was “no instances”, the “patients reporting KCCQ-CSS improvements of ≥5 points” value ([3]; 24/31 patients) was 77.4% and the “patients asymptomatic (NYHA class I)” value ([3]; by week 36) was 58.8%. The “drug discontinuations due to adverse events” value ([3]; in vivo) was “no drug discontinuations due to adverse events”, the “patients with LVEF<50%” value ([3]; in vivo) was 5.9% and the “reduction in LVEF (mean±SD)” value ([3]; over 36-weeks) was 4.3%. The tolerability ([3]; over the study period) was “well tolerated”, the “NT-proBNP median change from baseline” value ([3]; week 36) was -665.5 pg/mL and the “hs-cTnI median change from baseline” value ([3]; week 36) was -2.7 ng/L. For the same compound, the “mean KCCQ-CSS improvement relative to baseline” value ([3]; week 36) was 13.8±12.52 points and the “patients with NYHA class improved by ≥1 class” value ([3]; week 36) was 79.4%.
